Results on 15 compounds are retold here after ChEMBL document CHEMBL1817638, “Ligand polarizability contributes to tau fibril binding affinity” (Bioorg Med Chem, 2011).

The structures appear in SMILES notation. Activity calls are given as the source filed them. No cut-off for these calls is given here.

Chain of Microtubule-associated protein tau (Homo sapiens) (P10636 whole entry): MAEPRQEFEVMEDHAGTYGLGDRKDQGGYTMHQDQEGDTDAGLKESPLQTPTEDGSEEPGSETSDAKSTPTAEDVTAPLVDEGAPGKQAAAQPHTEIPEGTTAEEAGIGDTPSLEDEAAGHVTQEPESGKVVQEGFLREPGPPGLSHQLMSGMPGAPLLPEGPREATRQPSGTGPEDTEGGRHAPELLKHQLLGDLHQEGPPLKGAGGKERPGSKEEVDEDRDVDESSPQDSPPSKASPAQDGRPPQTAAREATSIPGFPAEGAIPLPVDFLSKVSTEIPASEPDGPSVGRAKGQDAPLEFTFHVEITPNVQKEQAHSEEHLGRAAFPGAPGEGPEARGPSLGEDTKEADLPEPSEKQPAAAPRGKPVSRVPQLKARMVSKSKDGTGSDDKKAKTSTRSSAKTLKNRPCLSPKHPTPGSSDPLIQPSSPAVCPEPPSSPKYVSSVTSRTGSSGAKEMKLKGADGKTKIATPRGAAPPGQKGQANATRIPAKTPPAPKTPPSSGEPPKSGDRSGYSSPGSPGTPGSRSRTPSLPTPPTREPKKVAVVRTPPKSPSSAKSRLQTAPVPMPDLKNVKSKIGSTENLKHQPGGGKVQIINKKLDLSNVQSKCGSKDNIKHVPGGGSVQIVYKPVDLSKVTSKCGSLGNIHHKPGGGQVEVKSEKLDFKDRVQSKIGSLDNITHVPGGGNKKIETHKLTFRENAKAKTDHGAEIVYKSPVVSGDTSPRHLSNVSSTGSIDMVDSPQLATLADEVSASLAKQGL

The first test concerns the target Microtubule-associated protein tau (Homo sapiens) (UniProt P10636). Kind of test: Displacement of Thioflavin S from recombinant human PHF-tau expressed in Escherichia coli by fluorescence assay.
For `CN(C)c1ccc(/C=C2\C(=O)Nc3ccc(I)cc32)cc1`, the result was Active.

A further test has the same target. The test can be described thus: Displacement of Thioflavin T from Octadecyl sulfate-induced synthetic Tau 0N4R aggregate at 17 pm to 10 uM by fluorescence assay at increasing probe concentration.
As for `CN(C)c1ccc(-c2nc3ccccc3s2)cc1`, the outcome was inactive.

Regarding `CN(C)c1ccc(/C=C2/C(=O)Nc3ccccc32)cc1`, the outcome was Active.

Tested on in a further test: not listed separately
The test can be described thus: Displacement of Thioflavin S from heparin-induced synthetic Tau 2N4R aggregate by fluorescence assay.
With `O=C(O)c1cc(/N=N/c2ccc(-c3ccc(/N=N/c4ccc(O)c(C(=O)O)c4)cc3)cc2)ccc1O`, the result was Active.

Turning to `CN(C)c1ccc2nc3ccc(=[N+](C)C)cc-3sc2c1`, the result was Active.

On to `COc1ccc2nc(/N=N/c3ccc(N(C)C)cc3)sc2c1`, for which the outcome was Active.

Turning to `C/N=c1\ccc2nc3ccc(N)cc3sc-2c1`, the outcome was Active.

Regarding `CN(C)c1ccc(/C=C2\C(=O)Nc3ccc(I)cc32)cc1`, the outcome was Active.

Tested on in another test: not listed separately
The test can be described thus: Displacement of Thioflavin S from Octadecyl sulfate-induced synthetic Tau 2N4R aggregate by fluorescence assay.
With `O=C(O)c1cc(/N=N/c2ccc(-c3ccc(/N=N/c4ccc(O)c(C(=O)O)c4)cc3)cc2)ccc1O`, the outcome was Active.

`CN(C)c1ccc2nc3ccc(=[N+](C)C)cc-3sc2c1`: the outcome was Active.

With `COc1ccc2nc(/N=N/c3ccc(N(C)C)cc3)sc2c1`, the outcome was Active.

For the compound `C/N=c1\ccc2nc3ccc(N)cc3sc-2c1`, the result was Active.

`CN(C)c1ccc(/C=C2\C(=O)Nc3ccc(I)cc32)cc1`: the outcome was Active.

Tested on in another test: not listed separately
The test can be described thus: Displacement of Thioflavin S from synthetic Tau 2N4R aggregate by fluorescence assay at 10 uM probe concentration.
Regarding `N=C1C=CC(=C(c2ccc(N)cc2)c2ccc(N)cc2)C=C1`, the outcome was Active.

Regarding `O=C1C=CC(=C(c2ccc(O)cc2)c2ccc(O)cc2)C=C1`, the outcome was Active.

Consider `CN(C)c1ccc2nc3ccc(=[N+](C)C)cc-3sc2c1`, for which the outcome was inactive.

On to `Nc1ccc2nc3ccc(N)cc3[s+]c2c1`, for which the result was inactive.

With `CN(C)c1ccc(C(=C2C=CC(=[N+](C)C)C=C2)c2ccc(N(C)C)cc2)cc1`, the result was Active.

For `CN(C)c1ccc2nc3ccc(N)cc3[s+]c2c1`, the outcome was inactive.

Turning to `Cc1cc2nc3ccc(N(C)C)cc3[s+]c2cc1N`, the result was inactive.

With `CN(C)c1ccc(C(=C2C=CC(=[N+](C)C)C=C2)c2ccccc2)cc1`, the result was Active.

Regarding `CNc1ccc2nc3ccc(N(C)C)cc3[s+]c2c1`, the outcome was inactive.

Regarding `C/N=c1\ccc2nc3ccc(N)cc3sc-2c1`, the outcome was inactive.

Tested on in another test: not listed separately
Kind of test: Displacement of Thioflavin T from synthetic Tau 2N4R aggregate by fluorescence assay at 1 uM probe concentration.
Consider `N=C1C=CC(=C(c2ccc(N)cc2)c2ccc(N)cc2)C=C1`, for which the outcome was Active.

As for `O=C1C=CC(=C(c2ccc(O)cc2)c2ccc(O)cc2)C=C1`, the result was Active.

Turning to `CN(C)c1ccc2nc3ccc(=[N+](C)C)cc-3sc2c1`, the result was Active.

In the case of `Nc1ccc2nc3ccc(N)cc3[s+]c2c1`, the result was Active.

Consider `CN(C)c1ccc(C(=C2C=CC(=[N+](C)C)C=C2)c2ccc(N(C)C)cc2)cc1`, for which the outcome was Active.

Consider `CN(C)c1ccc2nc3ccc(N)cc3[s+]c2c1`, for which the result was Active.

Consider `Cc1cc2nc3ccc(N(C)C)cc3[s+]c2cc1N`, for which the outcome was Active.

On to `CN(C)c1ccc(C(=C2C=CC(=[N+](C)C)C=C2)c2ccccc2)cc1`, for which the outcome was Active.

As for `CNc1ccc2nc3ccc(N(C)C)cc3[s+]c2c1`, the outcome was Active.

On to `C/N=c1\ccc2nc3ccc(N)cc3sc-2c1`, for which the result was Active.

Tested on in the next test: not listed separately
The test can be described thus: Displacement of Thioflavin S from arachidonic acid-induced synthetic Tau 2N4R aggregate by fluorescence assay.
Take `O=C(O)c1cc(/N=N/c2ccc(-c3ccc(/N=N/c4ccc(O)c(C(=O)O)c4)cc3)cc2)ccc1O`: the result was Active.

As to `CN(C)c1ccc2nc3ccc(=[N+](C)C)cc-3sc2c1`, the outcome was Active.

Take `COc1ccc2nc(/N=N/c3ccc(N(C)C)cc3)sc2c1`: the result was Active.

For `C/N=c1\ccc2nc3ccc(N)cc3sc-2c1`, the outcome was Active.

On to `CN(C)c1ccc(/C=C2\C(=O)Nc3ccc(I)cc32)cc1`, for which the outcome was Active.

Tested on in another test: not listed separately
The test can be described thus: Displacement of Thioflavin S from synthetic Tau 2N4R aggregate by fluorescence assay.
`CN(C)c1ccc(/C=C2\C(=O)Nc3ccc(I)cc32)cc1`: the result was Active.

A further test has as its target Microtubule-associated protein tau (Homo sapiens) (UniProt P10636). Kind of test: Displacement of Thioflavin T from Octadecyl sulfate-induced synthetic Tau 0N4R aggregate at 17 pm to 10 uM by fluorescence assay at 0.1 uM probe concentration.
`CN(C)c1ccc(-c2nc3ccccc3s2)cc1`: the outcome was Active.

As for `CN(C)c1ccc(/C=C2/C(=O)Nc3ccccc32)cc1`, the outcome was Active.
